Data on 19 compounds can be found in ChEMBL document CHEMBL1909046, “DrugMatrix in vitro pharmacology data”.

Experiment [1] is described as follows: DRUGMATRIX: Nicotinic Acetylcholine radioligand binding (ligand: [125I] Epibatidine). Type of experiment: cell membranes, Membrane. Particulars: imr-32; Not Active = under 50% inhibition at 10 µM.
A further experiment has as its target Melanocortin receptor 3 (Homo sapiens, UniProt P41968). Format: cell membranes, HEK293, Membrane. To be noted: hek293. Note: in other assays of this panel Not Active means under 50% inhibition at 10 µM.
Experiment [2] is described as follows: DRUGMATRIX: Phosphodiesterase PDE4 enzyme inhibition (substrate: [3H]cAMP + cAMP). To be noted: u-937; Not Active = under 50% inhibition at 10 µM.
Experiment [3] is described as follows: DRUGMATRIX: Purinergic P2X radioligand binding (ligand: [3H] alpha, beta-Methylene-ATP). Format: cell membranes, Oryctolagus cuniculus, New Zealand albino, Urinary bladder, Membrane. To be noted: Not Active = under 50% inhibition at 10 µM.
The target of experiment [4] is T1, Muscarinic acetylcholine receptor M5 (Homo sapiens, UniProt P08912). Note: in other assays of this panel Not Active means under 50% inhibition at 10 µM.
T1 sequence (P08912 whole entry): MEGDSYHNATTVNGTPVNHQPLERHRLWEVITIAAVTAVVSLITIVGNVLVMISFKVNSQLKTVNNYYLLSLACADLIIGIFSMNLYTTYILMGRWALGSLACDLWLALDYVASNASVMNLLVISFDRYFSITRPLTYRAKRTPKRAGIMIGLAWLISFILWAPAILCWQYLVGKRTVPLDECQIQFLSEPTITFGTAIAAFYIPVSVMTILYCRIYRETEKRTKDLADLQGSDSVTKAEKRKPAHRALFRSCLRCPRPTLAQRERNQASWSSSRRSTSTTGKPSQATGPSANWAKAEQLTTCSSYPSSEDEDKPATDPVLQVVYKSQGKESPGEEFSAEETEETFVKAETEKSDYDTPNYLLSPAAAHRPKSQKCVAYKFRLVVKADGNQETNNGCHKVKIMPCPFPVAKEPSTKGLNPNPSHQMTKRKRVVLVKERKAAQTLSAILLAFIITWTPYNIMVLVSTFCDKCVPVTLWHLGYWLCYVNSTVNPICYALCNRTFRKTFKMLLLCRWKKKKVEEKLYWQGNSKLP
Type of experiment: cell membranes, CHO-K1, Membrane.

The target in experiment [5] is T2, Muscarinic acetylcholine receptor M2 (Homo sapiens, UniProt P08172). Note: in other assays of this panel Not Active means under 50% inhibition at 10 µM.
T2 sequence (P08172 whole entry): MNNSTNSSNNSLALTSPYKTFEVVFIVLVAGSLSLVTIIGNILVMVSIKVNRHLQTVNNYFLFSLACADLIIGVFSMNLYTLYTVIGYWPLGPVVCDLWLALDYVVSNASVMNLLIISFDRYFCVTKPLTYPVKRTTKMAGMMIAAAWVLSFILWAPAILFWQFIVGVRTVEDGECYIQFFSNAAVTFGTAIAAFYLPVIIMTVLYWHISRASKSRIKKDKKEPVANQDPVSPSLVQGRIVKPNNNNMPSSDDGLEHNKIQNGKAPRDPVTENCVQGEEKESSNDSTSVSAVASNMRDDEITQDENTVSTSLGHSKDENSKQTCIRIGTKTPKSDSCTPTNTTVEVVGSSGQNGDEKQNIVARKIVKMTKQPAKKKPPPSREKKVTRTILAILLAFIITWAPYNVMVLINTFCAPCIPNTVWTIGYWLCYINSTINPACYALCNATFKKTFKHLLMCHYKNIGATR
Format: cell membranes, CHO-K1, Membrane.

Chain of Melanocortin receptor 3 (P41968 whole entry): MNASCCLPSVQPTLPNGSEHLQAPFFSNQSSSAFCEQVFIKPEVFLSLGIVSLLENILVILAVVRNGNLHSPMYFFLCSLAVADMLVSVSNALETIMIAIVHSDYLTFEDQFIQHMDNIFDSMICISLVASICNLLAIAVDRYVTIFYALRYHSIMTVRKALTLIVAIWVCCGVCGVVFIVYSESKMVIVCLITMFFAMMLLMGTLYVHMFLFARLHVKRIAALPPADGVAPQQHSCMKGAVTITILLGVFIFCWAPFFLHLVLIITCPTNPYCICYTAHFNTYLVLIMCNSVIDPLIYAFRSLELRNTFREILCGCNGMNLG

For `C[C@H](C(=O)O)c1ccc2oc(-c3ccc(F)cc3)nc2c1` [FLUNOXAPROFEN], the IC50 result (in experiment [1]; at Melanocortin receptor 3; in experiment [2]; in experiment [3]; in experiment [4] (cho-k1); in experiment [5] (cho-k1)) was “Not Active” throughout. The Ki result in experiment [1], in experiment [2] and in experiment [3] was “Not Active” each time.

Take `NS(=O)(=O)c1cc(C(=O)O)c(NCc2ccco2)cc1Cl` [FUROSEMIDE]: the IC50 result (in experiment [1]; against Melanocortin receptor 3; in experiment [2]; in experiment [3]; in experiment [4] (cho-k1); in experiment [5] (cho-k1)) was “Not Active” in each case. Also, the Ki result in experiment [1], in experiment [2] and in experiment [3] was “Not Active” throughout.

In the case of `COc1ccc(Cl)cc1C(=O)NCCc1ccc(S(=O)(=O)NC(=O)NC2CCCCC2)cc1` [GLYBURIDE], the IC50 result (in experiment [1]; on Melanocortin receptor 3; in experiment [2]; in experiment [3]; in experiment [4] (cho-k1); in experiment [5] (cho-k1)) was “Not Active” in each case. Also, the Ki result in experiment [1], in experiment [2] and in experiment [3] was “Not Active” in each case.

In the case of `O=C(O)CO` [GLYCOLIC ACID], the IC50 result (in experiment [1]; at Melanocortin receptor 3; in experiment [2]; in experiment [3]; in experiment [4] (cho-k1); in experiment [5] (cho-k1)) was “Not Active” in each case. In addition, the Ki entry in experiment [1], in experiment [2] and in experiment [3] was “Not Active” each time.

In the case of `O=C(O)CNCP(=O)(O)O` [GLYPHOSATE], the 50% inhibitory concentration (IC50) result (in experiment [1]; against Melanocortin receptor 3; in experiment [2]; in experiment [3]; in experiment [4] (cho-k1); in experiment [5] (cho-k1)) was “Not Active” each time. The Ki entry in experiment [1], in experiment [2] and in experiment [3] was “Not Active” throughout.

Take `Clc1cc(Cl)c(OCC#CI)cc1Cl` [HALOPROGIN]: the IC50 result (in experiment [1]; against Melanocortin receptor 3; in experiment [2]; in experiment [3]; in experiment [4] (cho-k1); in experiment [5] (cho-k1)) was “Not Active” in each case. The Ki entry in experiment [1], in experiment [2] and in experiment [3] was “Not Active” throughout.

In the case of `COC(=O)C[C@](O)(CCC(C)(C)O)C(=O)O[C@@H]1C(OC)=C[C@]23CCCN2CCc2cc4c(cc2[C@H]13)OCO4` [HARRINGTONINE], the IC50 entry (in experiment [1]; at Melanocortin receptor 3; in experiment [2]; in experiment [3]; in experiment [4] (cho-k1); in experiment [5] (cho-k1)) was “Not Active” throughout. Moreover, the inhibition constant Ki entry in experiment [1], in experiment [2] and in experiment [3] was “Not Active” in each case.

Turning to `CCN(CCO)CCCC(C)Nc1ccnc2cc(Cl)ccc12` (stereo not drawn) [HYDROXYCHLOROQUINE], the IC50 entry in experiment [1] is “Not Active”; against Melanocortin receptor 3, “Not Active”; in experiment [2], “Not Active”; in experiment [3] it was “Not Active”; in experiment [4] (cho-k1) it was “Not Active”; in experiment [5] (read-out: IC50), 2950 nM. Also, the Ki result in experiment [1] was “Not Active”; in experiment [2] it was “Not Active”; in experiment [3], “Not Active”; in experiment [5] (read-out: Ki) it was 1050 nM.

With `CC(=O)[C@]1(O)Cc2c(O)c3c(c(O)c2[C@@H](O[C@H]2C[C@H](N)[C@H](O)[C@H](C)O2)C1)C(=O)c1ccccc1C3=O` [IDARUBICIN], the IC50 result (in experiment [1]; at Melanocortin receptor 3; in experiment [2]; in experiment [3]; in experiment [4] (cho-k1); in experiment [5] (cho-k1)) was “Not Active” in each case. In addition, the Ki result in experiment [1], in experiment [2] and in experiment [3] was “Not Active” throughout.

`CC(C)Cn1cnc2c(N)nc3ccccc3c21` [IMIQUIMOD]: the IC50 entry (in experiment [1]; on Melanocortin receptor 3; in experiment [2]; in experiment [3]; in experiment [4] (cho-k1)) was “Not Active” in each case. In addition, the Ki entry in experiment [1], in experiment [2], in experiment [3] and in experiment [5] (cho-k1) was “Not Active” each time.

With `O=C(NCCN1CCOCC1)c1ccc(Cl)cc1` [MOCLOBEMIDE], the IC50 result (in experiment [1]; against Melanocortin receptor 3; in experiment [2]; in experiment [3]; in experiment [4] (cho-k1); in experiment [5] (cho-k1)) was “Not Active” in each case. For the same compound, the Ki entry in experiment [1], in experiment [2] and in experiment [3] was “Not Active” each time.

For the compound `C=CCN1CC[C@]23c4c5ccc(O)c4O[C@H]2/C(=N/N=C2\CC[C@@]4(O)[C@H]6Cc7ccc(O)c8c7[C@@]4(CCN6CC=C)[C@H]2O8)CC[C@@]3(O)[C@H]1C5` [NALOXONAZINE], the IC50 entry (in experiment [1]; against Melanocortin receptor 3; in experiment [2]; in experiment [3]; in experiment [4] (cho-k1); in experiment [5] (cho-k1)) was “Not Active” each time. In addition, the Ki entry in experiment [1], in experiment [2] and in experiment [3] was “Not Active” throughout.

As to `Cc1ccnc2c1NC(=O)c1cccnc1N2C1CC1` [NEVIRAPINE], the IC50 entry (in experiment [1]; on Melanocortin receptor 3; in experiment [2]; in experiment [3]; in experiment [4] (cho-k1); in experiment [5] (cho-k1)) was “Not Active” in each case. Also, the Ki result in experiment [1], in experiment [2] and in experiment [3] was “Not Active” in each case.

As for `O=C1CN(/N=C/c2ccc([N+](=O)[O-])o2)C(=O)N1` [NITROFURANTOIN], the IC50 entry (in experiment [1]; against Melanocortin receptor 3; in experiment [2]; in experiment [3]; in experiment [4] (cho-k1); in experiment [5] (cho-k1)) was “Not Active” each time. For the same compound, the Ki entry in experiment [1], in experiment [2] and in experiment [3] was “Not Active” throughout.

As to `C#C[C@]1(O)CC[C@H]2[C@@H]3CCC4=CC(=O)CC[C@@H]4[C@H]3CC[C@@]21C` [NORETHINDRONE], the IC50 result (in experiment [1]; against Melanocortin receptor 3; in experiment [2]; in experiment [3]; in experiment [4] (cho-k1); in experiment [5] (cho-k1)) was “Not Active” each time. The Ki entry in experiment [1], in experiment [2] and in experiment [3] was “Not Active” throughout.

Consider `O=C(O)CCc1nc(-c2ccccc2)c(-c2ccccc2)o1` [OXAPROZIN], for which the IC50 result (in experiment [1]; at Melanocortin receptor 3; in experiment [2]; in experiment [3]; in experiment [4] (cho-k1); in experiment [5] (cho-k1)) was “Not Active” in each case. Moreover, the Ki result in experiment [1], in experiment [2] and in experiment [3] was “Not Active” each time.

On to `Cc1cc(C(C)(C)C)c(O)c(C)c1CC1=NCCN1` [OXYMETAZOLINE], for which the 50% inhibitory concentration (IC50) entry is “Not Active” in experiment [1]; “Not Active” against Melanocortin receptor 3; “Not Active” in experiment [2]; “Not Active” in experiment [3]; 1330 nM in experiment [4] (read-out: IC50); “Not Active” in experiment [5] (cho-k1). Besides, the Ki entry is “Not Active” in experiment [1], “Not Active” in experiment [2], “Not Active” in experiment [3] and 957 nM in experiment [4] (read-out: Ki).

Regarding `NC(=O)NC(=O)Cc1ccccc1` [PHENACEMIDE], the IC50 entry (in experiment [1]; against Melanocortin receptor 3; in experiment [2]; in experiment [3]; in experiment [4] (cho-k1); in experiment [5] (cho-k1)) was “Not Active” each time. Besides, the Ki entry in experiment [1], in experiment [2] and in experiment [3] was “Not Active” each time.

Turning to `O=C1c2ccccc2C(=O)C1c1ccccc1` [PHENINDIONE], the IC50 result (in experiment [1]; against Melanocortin receptor 3; in experiment [2]; in experiment [3]; in experiment [4] (cho-k1); in experiment [5] (cho-k1)) was “Not Active” throughout. In addition, the Ki result in experiment [1], in experiment [2] and in experiment [3] was “Not Active” each time.

As usually defined, the IC50 is the concentration at which inhibition is half-maximal. By Ki is commonly meant a dissociation constant, usually derived from enzyme kinetics or from competition with a known ligand.
